The target in the experiment is PI3Kδ (p110δ/p85α) (Homo sapiens (Human), UniProt O00329). Kind of experiment: Example A3: PI3Kδ scintillation proximity assay. Type of experiment: biochemical. The settings on record: scintillation proximity assay, 20 μM ATP, 4 nM PI3Kδ; read-out: PI3Kδ SPA IC50. Here is the method: [γ-^33P]ATP (10 mCi/mL) was purchased from Perkin-Elmer (Waltham, Mass.). […] PI3Kδ (p110δ/p85α) was purchased from Millipore (Bedford, Mass.). ATP, MgCl2, DTT, EDTA, MOPS and CHAPS were purchased from Sigma-Aldrich (St. Louis, Mo.). Wheat Germ Agglutinin (WGA) YSi SPA Scintillation Beads was purchased from GE healthcare life sciences (Piscataway, N.J.).
Sequence of PI3Kδ (p110δ/p85α) (O00329 whole entry): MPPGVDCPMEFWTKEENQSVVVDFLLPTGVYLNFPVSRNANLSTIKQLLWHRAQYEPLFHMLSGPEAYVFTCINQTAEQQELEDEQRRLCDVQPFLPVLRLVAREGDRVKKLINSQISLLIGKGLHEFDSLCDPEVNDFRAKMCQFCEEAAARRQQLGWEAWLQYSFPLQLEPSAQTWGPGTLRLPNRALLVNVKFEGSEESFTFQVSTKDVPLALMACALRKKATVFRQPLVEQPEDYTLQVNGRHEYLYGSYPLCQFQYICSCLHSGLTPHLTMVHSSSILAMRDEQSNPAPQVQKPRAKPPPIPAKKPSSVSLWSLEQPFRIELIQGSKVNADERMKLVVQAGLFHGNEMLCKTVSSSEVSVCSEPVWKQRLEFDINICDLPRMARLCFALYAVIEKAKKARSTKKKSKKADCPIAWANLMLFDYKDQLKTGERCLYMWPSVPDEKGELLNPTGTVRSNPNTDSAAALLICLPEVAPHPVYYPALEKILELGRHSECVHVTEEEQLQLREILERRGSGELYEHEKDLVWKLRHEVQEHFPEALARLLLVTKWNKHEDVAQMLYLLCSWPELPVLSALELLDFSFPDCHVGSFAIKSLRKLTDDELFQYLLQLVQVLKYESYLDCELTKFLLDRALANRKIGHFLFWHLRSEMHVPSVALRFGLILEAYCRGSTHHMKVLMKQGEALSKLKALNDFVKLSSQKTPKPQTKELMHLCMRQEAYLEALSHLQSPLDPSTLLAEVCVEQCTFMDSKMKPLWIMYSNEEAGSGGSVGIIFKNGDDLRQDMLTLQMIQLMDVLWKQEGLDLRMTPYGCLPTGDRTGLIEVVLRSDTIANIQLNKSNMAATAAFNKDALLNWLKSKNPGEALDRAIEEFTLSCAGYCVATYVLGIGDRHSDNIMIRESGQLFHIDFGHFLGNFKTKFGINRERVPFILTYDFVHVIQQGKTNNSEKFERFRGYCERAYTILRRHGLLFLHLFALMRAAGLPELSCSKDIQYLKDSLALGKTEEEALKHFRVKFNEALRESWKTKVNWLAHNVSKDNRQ
Sequence of PI3Kδ (p110δ/p85α) (P27986 whole entry partner): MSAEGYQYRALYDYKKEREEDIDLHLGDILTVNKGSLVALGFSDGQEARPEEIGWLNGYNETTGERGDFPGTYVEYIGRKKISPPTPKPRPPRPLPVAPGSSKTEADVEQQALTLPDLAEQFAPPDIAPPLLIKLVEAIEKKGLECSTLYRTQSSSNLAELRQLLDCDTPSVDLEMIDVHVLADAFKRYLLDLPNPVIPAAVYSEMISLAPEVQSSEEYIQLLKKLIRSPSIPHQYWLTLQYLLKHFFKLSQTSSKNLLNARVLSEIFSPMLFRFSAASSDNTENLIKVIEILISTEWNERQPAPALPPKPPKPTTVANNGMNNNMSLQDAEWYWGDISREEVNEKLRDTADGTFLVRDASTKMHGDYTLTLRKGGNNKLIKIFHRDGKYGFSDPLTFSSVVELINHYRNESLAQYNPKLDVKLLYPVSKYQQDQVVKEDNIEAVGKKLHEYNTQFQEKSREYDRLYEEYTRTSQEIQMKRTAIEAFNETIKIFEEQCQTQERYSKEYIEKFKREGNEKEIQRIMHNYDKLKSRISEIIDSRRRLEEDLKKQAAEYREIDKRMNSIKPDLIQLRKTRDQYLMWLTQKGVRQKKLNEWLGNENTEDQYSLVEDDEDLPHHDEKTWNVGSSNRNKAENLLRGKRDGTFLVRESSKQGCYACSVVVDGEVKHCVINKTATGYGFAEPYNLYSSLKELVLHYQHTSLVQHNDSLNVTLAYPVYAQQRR
The kinase reaction was conducted in polystyrene 384-well matrix white plate from Thermo Fisher Scientific in a final volume of 25 μL. Inhibitors were first diluted serially in DMSO and added to the plate wells before the addition of other reaction components. The final concentration of DMSO in the assay was 0.5%. The PI3K assays were carried out at room temperature in 20 mM MOPS, pH 6.7, 10 mM MgCl2, 5 mM DTT and CHAPS 0.03%. Reactions were initiated by the addition of ATP, the final reaction mixture consisted of 20 μM PIP2, 20 μM ATP, 0.2 μCi [γ-^33P] ATP, 4 nM PI3Kδ. […] 25 mM EDTA, 400 μM ATP. The final concentration of SPA beads was 1.0 mg/mL. After the plate sealing, plates were shaken overnight at room temperature and centrifuged at 1800 rpm for 10 minutes, the radioactivity of the product was determined by scintillation counting on Topcount (Perkin-Elmer). IC50 determination was performed by fitting the curve of percent control activity versus the log of the inhibitor concentration using the GraphPad Prism 3.0 software.
In general terms: Scintillation proximity formats need no separation of bound from free tracer.

Each structure is given as a SMILES string. Counter-ions that a name gives are not always drawn.

Consider `CCOc1c(C(C)n2nc(-c3cnn(CCO)c3)c3c(N)ncnc32)cc(Cl)c(C)c1-c1ccc(C(=O)N(C)C)nc1` (stereo not shown) [Example 52, 5-[3-(1-{4-amino-3-[1-(2-hydroxyethyl)-1H-pyrazol-4-yl]-1H-pyrazolo[3,4-d]pyrimidin-1-yl}ethyl)-5-chloro-2-ethoxy-6-methylphenyl]-N,N-dimethylpyridine-2-carboxamide bis(trifluoroacetate)], for which the IC50 is less than 10 nM.

As to `COc1c(C(C)n2nc(C)c3c(N)ncnc32)cc(Cl)c(C)c1C1CN([C@@H](C)C(=O)N(C)C)C1` (stereo partly drawn) [Example 160, (2S)-2-(3-{3-[1-(4-Amino-3-methyl-1H-pyrazolo[3,4-d]pyrimidin-1-yl)ethyl]-5-chloro-2-methoxy-6-methylphenyl}azetidin-1-yl)-N,N-dimethylpropanamide], the IC50 is less than 10 nM.

With `CCOc1c(C(C)n2nc(C)c3c(N)ncnc32)cc(Cl)c(C#N)c1-c1cncnc1` (racemic) [Example 329, 4-[1-(4-amino-3-methyl-1H-pyrazolo[3,4-d]pyrimidin-1-yl)ethyl]-6-chloro-3-ethoxy-2-pyrimidin-5-ylbenzonitrile], the IC50 was less than 10 nM.

As to `COc1c(C(C)n2nc(C)c3c(N)ncnc32)cc(Cl)c(C)c1C1CN(C(C)C#N)C1` (stereo not shown) [Example 106, 2-(3-{3-[1-(4-Amino-3-methyl-1H-pyrazolo[3,4-d]pyrimidin-1-yl)ethyl]-5-chloro-2-methoxy-6-methylphenyl}azetidin-1-yl)propanenitrile], the IC50 was less than 10 nM.

Take `CCNC(=O)c1c(C)c(Cl)cc(C(C)n2nc(-c3ccc4nc(N)sc4c3)c3c(N)ncnc32)c1OCC` (racemic) [Example 90, 3-{1-[4-Amino-3-(2-amino-1,3-benzothiazol-6-yl)-1H-pyrazolo[3,4-d]pyrimidin-1-yl]ethyl}-5-chloro-2-ethoxy-N-ethyl-6-methylbenzamide]: the IC50 was less than 10 nM.

`CCOc1c(C(C)n2nc(C)c3c(N)ncnc32)cc(C)c(C#N)c1-c1cnn(C)c1` (racemic) [Example 343, 4-[1-(4-amino-3-methyl-1H-pyrazolo[3,4-d]pyrimidin-1-yl)ethyl]-3-ethoxy-6-methyl-2-(1-methyl-1H-pyrazol-4-yl)benzonitrile]: the IC50 is less than 10 nM.

`COc1c(C(C)n2nc(C(F)F)c3c(N)ncnc32)cc(C#N)c(F)c1C1CN(C[C@H](C)O)C1` (stereo partly drawn) [Example 77, 5-(1-(4-Amino-3-(difluoromethyl)-1H-pyrazolo[3,4-d]pyrimidin-1-yl)ethyl)-2-fluoro-3-(1-((S)-2-hydroxypropyl)azetidin-3-yl)-4-methoxybenzonitrile]: the 50% inhibitory concentration (IC50) was less than 10 nM.

On to `COc1c(C(C)n2nc(C)c3c(N)ncnc32)cc(Cl)c(C#N)c1C1CN(C(C)CO)C1` (single isomer, unassigned) [Example 273, 4-[1-(4-amino-3-methyl-1H-pyrazolo[3,4-d]pyrimidin-1-yl)ethyl]-6-chloro-2-[1-(2-hydroxy-1-methylethyl)azetidin-3-yl]-3-methoxybenzonitrile], for which the 50% inhibitory concentration (IC50) is less than 10 nM.

Consider `CCOc1c(C(C)n2nc(C#C[C@H](C)O)c3c(N)ncnc32)cc(Cl)c(C)c1-c1ccc(C(=O)N(C)C)nc1` (stereo partly drawn) [Example 80, 5-[3-(1-{4-Amino-3-[(3S)-3-hydroxybut-1-yn-1-yl]-1H-pyrazolo[3,4-d]pyrimidin-1-yl}ethyl)-5-chloro-2-ethoxy-6-methylphenyl]-N,N-dimethylpyridine-2-carboxamide bis(trifluoroacetate)], for which the IC50 is less than 10 nM.

On to `CCOc1c(C(C)n2cc(C)c3c(N)ncnc32)cc(Cl)c(C#N)c1C1CN(C[C@H](C)O)C1` (stereo partly drawn) [Example 309, 4-[1-(4-Amino-5-methyl-7H-pyrrolo[2,3-d]pyrimidin-7-yl)ethyl]-6-chloro-3-ethoxy-2-{1-[(2S)-2-hydroxypropyl]azetidin-3-yl}benzonitrile], for which the IC50 was less than 10 nM.

With `COc1c(C(C)n2cc(C)c(=O)c3c(N)ncnc32)cc(Cl)c(C)c1-c1ccc(C(=O)N(C)C)nc1` (stereo not shown) [Example 360, 5-{3-[1-(4-Amino-6-methyl-5-oxopyrido[2,3-d]pyrimidin-8(5H)-yl)ethyl]-5-chloro-2-methoxy-6-methylphenyl}-N,N-dimethylpyridine-2-carboxamide bis(trifluoroacetate)], the IC50 was less than 10 nM.

On to `COc1c(C(C)n2ccc(=O)c3c(N)ncnc32)cc(Cl)c(C)c1C1CN(C(C)C)C1` (racemic) [Example 34, 4-Amino-8-{1-[5-chloro-3-(1-isopropylazetidin-3-yl)-2-methoxy-4-methylphenyl]ethyl}pyrido[2,3-d]pyrimidin-5(8H)-one], for which the IC50 was less than 10 nM.

Turning to `COc1c(C(C)n2nc(C)c3c(N)ncnc32)cc(Cl)c(C#N)c1C1CN(C(=O)N(C)C)C1` (single isomer, unassigned) [Example 296, 3-{3-[1-(4-Amino-3-methyl-1H-pyrazolo[3,4-d]pyrimidin-1-yl)ethyl]-5-chloro-6-cyano-2-methoxyphenyl}-N,N-dimethylazetidine-1-carboxamide], the IC50 is less than 10 nM.

Take `COc1c(C(C)n2nc(C(F)F)c3c(N)ncnc32)cc(C#N)c(C)c1C1CN(C[C@@H](C)O)C1` (stereo partly drawn) [Example 132, 5-{1-[4-Amino-3-(difluoromethyl)-1H-pyrazolo[3,4-d]pyrimidin-1-yl]ethyl}-3-{1-[(2R)-2-hydroxypropyl]azetidin-3-yl}-4-methoxy-2-methylbenzonitrile]: the IC50 is less than 10 nM.

Regarding `COc1c(C(C)n2nc(C)c3c(N)ncnc32)cc(Cl)c(C#N)c1C1CN(S(=O)(=O)C(C)C)C1` (single isomer, unassigned) [Example 287, 4-[1-(4-Amino-3-methyl-1H-pyrazolo[3,4-d]pyrimidin-1-yl)ethyl]-6-chloro-2-[1-(isopropylsulfonyl)azetidin-3-yl]-3-methoxybenzonitrile], the IC50 was less than 10 nM.

Take `CCOc1c(C(C)n2nc(C)c3c(N)ncnc32)cc(Cl)c(C)c1C1CN(C(=O)c2cnn(C)c2)C1` (stereo not shown) [Example 101, 1-[1-(5-Chloro-2-ethoxy-4-methyl-3-{1-[(1-methyl-1H-pyrazol-4-yl)carbonyl]azetidin-3-yl}phenyl)ethyl]-3-methyl-1H-pyrazolo[3,4-d]pyrimidin-4-amine trifluoroacetate]: the IC50 is less than 10 nM.

Take `COc1c(C(C)n2nc(C)c3c(N)ncnc32)cc(Cl)c(F)c1C1CN(CCO)C1` (racemic) [Example 71, 2-(3-{3-[1-(4-Amino-3-methyl-1H-pyrazolo[3,4-d]pyrimidin-1-yl)ethyl]-5-chloro-6-fluoro-2-methoxyphenyl}azetidin-1-yl)ethanol]: the IC50 is less than 10 nM.

In the case of `COc1c(C(C)n2nc(C)c3c(N)ncnc32)cc(Cl)c(C)c1C1CN(C2COC2)C1` (racemic) [Example 63, 1-{1-[5-chloro-2-methoxy-4-methyl-3-(1-oxetan-3-ylazetidin-3-yl)phenyl]ethyl}-3-methyl-1H-pyrazolo[3,4-d]pyrimidin-4-amine], the IC50 was less than 10 nM.

For `CCOc1c(C(C)n2nc(CC#N)c3c(N)ncnc32)cc(Cl)c(C)c1-c1ccc(C(=O)N(C)C)nc1` (racemic) [Example 165, 5-(3-{1-[4-Amino-3-(cyanomethyl)-1H-pyrazolo[3,4-d]pyrimidin-1-yl]ethyl}-5-chloro-2-ethoxy-6-methylphenyl)-N,N-dimethylpyridine-2-carboxamide], the IC50 is less than 10 nM.

Broadly, the IC50 is the concentration needed to halve the response being measured.

(Values after patent US10092570B2 (Incyte Corporation, priority 2011, dated 2018).)
